Source: PMC10897212, “Structural insight into the allosteric inhibition of human sodium-calcium exchanger NCX1 by XIP and SEA0400” (The EMBO Journal, 2023)

Molecular target: T1, Na+/Ca2+ exchanger NCX1.3 (Homo sapiens, UniProt P32418)
T1 construct: gene SLC8A1; full-length wild-type human NCX1.3 (UniProtKB P32418-2); model residues 51–283, 405–501, 518–637, 654–720, and 736–937
Test: cryo-EM structure at […] Å; also CPM thermofluor shift (~[…] °C) and Fura-2 Ca2+ uptake inhibition at […] in HEK293T cells
Format: binding

CCOc1ccc(Oc2ccc(OCc3cc(F)ccc3F)cc2)c(N)c1 [SEA0400]
cryo-EM structure at 3.5 Å; also CPM thermofluor shift (~10 °C) and Fura-2 Ca2+: The SEA0400 molecule is allocated within a negatively charged cavity surrounded by TM2ab, TM4, TM5, and TM8
